The structures appear in SMILES notation.

Common to all, as to format: cell-based
The subject of experiment [1] is alpha-smooth muscle actin (α-SMA). The experiment is described as follows: Inhibition of TGF-β induced expression of alpha-smooth muscle actin (α-SMA) in CFSC cells (western blot). The conditions noted are these: compound at 10 μM, TGF-β (10 ng/mL), 24 hours, band intensity vs TGF-β only. In a few lines: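 CFSC hepatic stellate cells in serum-free DMEM treated 24 h at 37 °C with compound at 10 μM plus TGF-β (10 ng/mL). α-SMA measured by Western blot with β-actin, ECL detection, densitometry. Percent inhibition is decrease in band intensity versus TGF-β-only cells.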

In a further experiment the test system is HepG2 (liver cancer). The experiment is described as follows: Antiproliferative activity (CCK-8 cell viability), HepG2. Conditions: Homo sapiens, 72 h, read-out: Antiproliferative activity in cancerous cells, HepG2 (inhibition of cell growth); for inhibition at 3.3 µM: Compound concentration: 3.3 μM; for inhibition at 10 µM: Compound concentration: 10 μM. In a few lines:
(§1)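 Cells grown in DMEM (HepG2, SW480), MEM (HeLa) or F-12K (A549), each with 10% FBS, then exposed to compound at 3.3, 10 or 30 μM for 72 h at 37 °C. CCK-8 absorbance at 450 nm; viability expressed as percent of DMSO-treated cells, graded as growth inhibition bands.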

Experiment [2] relates to A549 (lung adenocarcinoma). The experiment is described as follows: Antiproliferative activity (CCK-8 cell viability), A549. Conditions: Homo sapiens, 72 h, read-out: Antiproliferative activity in cancerous cells, A549 (inhibition of cell growth); for inhibition at 3.3 µM: Compound concentration: 3.3 μM; for inhibition at 10 µM: Compound concentration: 10 μM. In a few lines: as §1

Experiment [3] has as its system B16F10 (malignant melanoma). The experiment can be described thus: Antiproliferative activity (CCK-8 cell viability), B16F10. The conditions noted are these: Mus musculus, 72 h, read-out: Antiproliferative activity in cancerous cells, B16F10 (inhibition of cell growth); for inhibition at 3.3 µM: B16-F10, Compound concentration: 3.3 μM; for inhibition at 10 µM: B16-F10, Compound concentration: 10 μM. The method in brief:
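B16F10 melanoma cells grown in DMEM with 10% FBS were plated in 96-well plates at 2,000-5,000 cells/well. After attachment they were exposed to compound in medium for 72 h at 37° C. CCK-8 solution (10 μL) was then added, and after 4 h at 37° C absorbance was read at 450 nm.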

For experiment [4], the system named is MDA-MB-231 (breast cancer). The experiment is described as follows: Antiproliferative activity (CCK-8 cell viability), MDA-MB-231. Conditions: Homo sapiens, 72 h, read-out: Antiproliferative activity in cancerous cells, MDA-MB-231 (inhibition of cell growth); for inhibition at 3.3 µM: Compound concentration: 3.3 μM; for inhibition at 10 µM: Compound concentration: 10 μM. In a few lines: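 MDA-MB-231 breast cancer cells, grown in DMEM with 10% FBS, were plated in 96-well plates at 2,000-5,000 cells/well. Once attached, they were exposed to compound and incubated at 37° C. for 72 h. Viability was then measured with CCK-8 (10 μL per well, 4 h at 37° C.) by absorbance at 450 nm, relative to DMSO vehicle wells.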

The next experiment has as its system SW480 (colon cancer). The experiment is described as follows: Antiproliferative activity (CCK-8 cell viability), SW480. Conditions: Homo sapiens, 72 h; for inhibition at 3.3 µM: Compound concentration: 3.3 μM; for inhibition at 3.3 µM / inhibition at 10 µM: read-out: Antiproliferative activity in cancerous cells, SW480 (inhibition of cell growth); for inhibition at 10 µM: Compound concentration: 10 μM. The method in brief:
as §1

A further experiment has as its system HeLa (cervical cancer). The experiment is described as follows: Antiproliferative activity (CCK-8 cell viability), HeLa. The conditions noted are these: Homo sapiens, 72 h; for inhibition at 3.3 µM: Compound concentration: 3.3 μM; for inhibition at 3.3 µM / inhibition at 10 µM: read-out: Antiproliferative activity in cancerous cells, HELA (inhibition of cell growth); for inhibition at 10 µM: Compound concentration: 10 μM. In a few lines:
as §1

The subject of experiment [5] is A431 (epidermoid carcinoma). The experiment can be described thus: Antiproliferative activity (CCK-8 cell viability), A431. Conditions: Homo sapiens, 72 h, read-out: Antiproliferative activity in cancerous cells, A431 (inhibition of cell growth); for inhibition at 3.3 µM: A-431, Compound concentration: 3.3 μM; for inhibition at 10 µM: A-431, Compound concentration: 10 μM. The method in brief:
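A431 epidermoid carcinoma cells grown in DMEM with 10% FBS were plated at 2,000-5,000 cells/well in 96-well plates. After attachment they were exposed to compound at 3.3 μM, 10 μM, or 30 μM for 72 h at 37° C. Viability was then assessed by CCK-8 against DMSO vehicle-treated wells.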

As to `CCc1ccc(/C=C2/C(Cc3ccc(Oc4ccc(F)cc4)cc3)=C(CC(=O)O)c3cc(F)ccc32)cc1` [A104, (Z)-2-(1-(4-Ethylbenzylidene)-5-fluoro-2-(4-(4-fluorophenoxy)benzyl)-1H-inden-3-yl)acetic acid], the inhibition at 10 µM in experiment [1] was > 80%; with HepG2 (liver cancer), ≥ 50%; in experiment [2], ≥ 50%; in experiment [3], ≥ 50%; in experiment [4] it was ≥ 50%; in the experiment on SW480 (colon cancer) it was ≥ 50%. Also, the inhibition at 10 µM (in the experiment on HeLa (cervical cancer); in experiment [5]) was ≥ 50% each time. Besides, the inhibition at 3.3 µM (with HepG2 (liver cancer); in experiment [2]; in experiment [3]; in experiment [4]; in the experiment on SW480 (colon cancer); with HeLa (cervical cancer)) was ≥ 50% in each case. The inhibition at 3.3 µM in experiment [5] is ≥ 50%.
Consider `CC1=C(CC(=O)O)c2ccc(F)cc2/C1=C\c1ccc(Oc2ccc(F)cc2)cc1` [C3, (Z)-2-(6-Fluoro-1-(4-(4-fluorophenoxy)benzylidene)-2-methyl-1H-inden-3-yl)-acetic acid], for which the inhibition at 10 µM in experiment [1] was < 30%; with HepG2 (liver cancer) it was ≥ 50%; in experiment [2], 30 to 50%; in experiment [3] it was 30 to 50%; in experiment [4] it was 30 to 50%; with SW480 (colon cancer) it was < 30%. Further, the results for the inhibition at 10 µM (in the experiment on HeLa (cervical cancer); in experiment [5]) were < 30% and ≥ 50%, respectively. The inhibition at 3.3 µM with HepG2 (liver cancer) was ≥ 50%; in experiment [2], 30 to 50%; in experiment [3] it was < 30%; in experiment [4], < 30%; with SW480 (colon cancer), < 30%; in the experiment with HeLa (cervical cancer), < 30%. Besides, in experiment [5], the inhibition at 3.3 µM was ≥ 50%. The inhibition at 30 µM with SW480 (colon cancer) (Compound concentration: 30 μM, read-out: Antiproliferative activity in cancerous cells, SW480) was < 30%; in the experiment with HeLa (cervical cancer) (Compound concentration: 30 μM, read-out: Antiproliferative activity in cancerous cells, HELA), < 30%.

The values above are taken from patent publication US20260184663A1, “INDENE COMPOUNDS, PHARMACEUTICAL COMPOSITIONS THEREOF, AND THEIR THERAPEUTIC APPLICATIONS” (NucMito Pharmaceuticals co. Ltd., priority 2022, published 2026).
